In this test the target is human F508del-CFTR (Homo sapiens, UniProt P13569, DEL508-508). Put plainly: F508del-CFTR cell surface expression (corrector activity), DiscoveRx ß-galactosidase complementation chemiluminescence assay in recombinant U2OS cell line.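 For all read-outs here: U2OS cells co-expressing ProLink-tagged F508del-CFTR and a membrane-anchored enzyme acceptor, where more surface CFTR restores β-galactosidase activity measured by chemiluminescence.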 The conditions noted are these: U2OS cell line, 16h compound incubation; for pEC50: EC50, F508del-CFTR cell surface expression, geomean values; for Emax: U2OS, in relation to the Emax of the corrector lumacaftor (=100%), arithmetic mean values.
Sequence of human F508del-CFTR (P13569 with tags, fused parts or gaps DEL508-508): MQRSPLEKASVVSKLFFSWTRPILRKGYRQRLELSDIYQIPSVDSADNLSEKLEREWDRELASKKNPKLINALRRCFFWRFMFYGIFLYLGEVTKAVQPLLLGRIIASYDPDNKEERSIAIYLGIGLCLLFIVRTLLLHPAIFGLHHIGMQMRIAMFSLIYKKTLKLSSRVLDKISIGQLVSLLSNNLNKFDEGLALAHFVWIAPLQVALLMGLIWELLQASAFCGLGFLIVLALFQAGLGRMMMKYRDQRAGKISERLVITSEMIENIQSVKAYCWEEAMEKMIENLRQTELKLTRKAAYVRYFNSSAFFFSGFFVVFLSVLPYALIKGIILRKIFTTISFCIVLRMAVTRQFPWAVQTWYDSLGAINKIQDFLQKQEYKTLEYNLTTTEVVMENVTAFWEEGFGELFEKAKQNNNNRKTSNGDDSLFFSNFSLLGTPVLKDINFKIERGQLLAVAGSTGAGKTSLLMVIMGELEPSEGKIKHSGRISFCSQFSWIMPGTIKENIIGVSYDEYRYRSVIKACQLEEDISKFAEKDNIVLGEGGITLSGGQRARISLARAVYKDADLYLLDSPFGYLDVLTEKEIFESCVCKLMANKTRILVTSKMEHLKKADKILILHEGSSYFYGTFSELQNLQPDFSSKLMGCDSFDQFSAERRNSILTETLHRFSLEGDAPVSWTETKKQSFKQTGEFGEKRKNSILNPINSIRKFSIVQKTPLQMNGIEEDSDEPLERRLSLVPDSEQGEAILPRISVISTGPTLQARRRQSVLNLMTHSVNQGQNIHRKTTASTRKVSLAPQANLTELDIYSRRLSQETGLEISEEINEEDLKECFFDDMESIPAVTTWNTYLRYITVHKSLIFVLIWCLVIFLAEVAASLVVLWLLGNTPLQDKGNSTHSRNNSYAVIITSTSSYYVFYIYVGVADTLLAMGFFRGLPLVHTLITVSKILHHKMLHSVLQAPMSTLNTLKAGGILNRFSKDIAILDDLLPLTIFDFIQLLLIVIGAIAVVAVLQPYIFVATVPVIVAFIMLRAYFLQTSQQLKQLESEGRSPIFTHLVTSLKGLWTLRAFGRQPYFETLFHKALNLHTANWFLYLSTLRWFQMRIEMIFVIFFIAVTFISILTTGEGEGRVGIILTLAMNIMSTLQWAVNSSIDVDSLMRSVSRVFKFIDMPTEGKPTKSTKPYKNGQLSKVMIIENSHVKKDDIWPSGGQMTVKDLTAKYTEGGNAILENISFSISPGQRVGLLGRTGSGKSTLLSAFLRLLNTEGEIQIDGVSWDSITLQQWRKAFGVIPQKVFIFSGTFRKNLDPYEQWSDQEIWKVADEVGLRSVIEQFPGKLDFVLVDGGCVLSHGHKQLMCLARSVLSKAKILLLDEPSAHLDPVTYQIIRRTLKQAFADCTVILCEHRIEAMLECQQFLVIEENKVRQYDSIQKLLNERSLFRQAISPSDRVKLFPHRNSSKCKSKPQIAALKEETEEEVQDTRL

pEC50: −log10 of the molar value.

In the case of `COc1cccc(CCNC(=O)[C@@H]2CC(=O)N(C)[C@@H](CC(C)C)C(=O)N3CCN(C(C)C)C[C@@H]3C(=O)N[C@H](Cc3ccccc3)COc3ccc4nc(C)oc4c3C(=O)N2)c1` [Example 352, (8S,12S,18aR,21R)-21-benzyl-12-isobutyl-17-isopropyl-N-(3-methoxyphenethyl)-4,11-dimethyl-6,10,13,19-tetraoxo-6,7,8,9,10,11,12,13,16,17,18,18a,19,20,21,22-hexadecahydro-15H-oxazolo[4′,5′:5,6]benzo[1,2-p]pyrazino[2,1-f][1]oxa[4,7,10,14]tetraazacycloheptadecine-8-carboxamide], the pEC50 (usually the negative decadic logarithm of the EC50, by convention in mol/L) was 6.53 and the Emax (usually the size of the effect at its maximum, as opposed to the concentration needed) turned out to be 262%.
The corresponding values for `COc1cccc(CCNC(=O)[C@@H]2CC(=O)N(C)[C@@H](CC(C)C)C(=O)N3CCN(C(C)C)C[C@@H]3C(=O)N[C@H](Cc3ccccc3)COc3ccc4ncn(C)c4c3C(=O)N2)c1` [Example 353, (8S,12S,18aR,21R)-21-benzyl-12-isobutyl-17-isopropyl-N-(3-methoxyphenethyl)-5,11-dimethyl-6,10,13,19-tetraoxo-6,7,8,9,10,11,12,13,16,17,18,18a,19,20,21,22-hexadecahydro-5H,15H-imidazo[4′,5′:5,6]benzo[1,2-p]pyrazino[2,1-f][1]oxa[4,7,10,14]tetraazacycloheptadecine-8-carboxamide] are 6.29 and 177%.
The corresponding values for `COCCN1CCN2C(=O)[C@H](CC(C)C)N(C)C(=O)C[C@@H](C(=O)NCCc3cccc(OC)c3)NC(=O)c3c(ccc4ccccc34)OC[C@@H](Cc3ccccc3)NC(=O)[C@H]2C1` [Example 354, (4aR,7R,18S,22S)-7-benzyl-22-isobutyl-3-(2-methoxyethyl)-N-(3-methoxyphenethyl)-21-methyl-5,16,20,23-tetraoxo-2,3,4,4a,5,6,7,8,16,17,18,19,20,21,22,23-hexadecahydro-1H-naphtho[1,2-p]pyrazino[2,1-f][1]oxa[4,7,10,14]tetraazacycloheptadecine-18-carboxamide] are 6.64 and 321%.
For `COc1cccc(CCNC(=O)[C@@H]2CC(=O)N(C)[C@@H](CC(C)C)C(=O)N3CCN(C4CCC4)C[C@@H]3C(=O)N[C@H](Cc3ccccc3)COc3ccc4ccccc4c3C(=O)N2)c1` [Example 355, (4aR,7R,18S,22S)-7-benzyl-3-cyclobutyl-22-isobutyl-N-(3-methoxyphenethyl)-21-methyl-5,16,20,23-tetraoxo-2,3,4,4a,5,6,7,8,16,17,18,19,20,21,22,23-hexadecahydro-1H-naphtho[1,2-p]pyrazino[2,1-f][1]oxa[4,7,10,14]tetraazacycloheptadecine-18-carboxamide] the same measures were 7.06 and 307%.
For `COc1cccc(CCNC(=O)[C@@H]2CC(=O)N(C)[C@@H](CC(C)C)C(=O)N3CCN(C4CC4)C[C@@H]3C(=O)N[C@H](Cc3ccccc3)COc3ccc4ccccc4c3C(=O)N2)c1` [Example 356, (4aR,7R,18S,22S)-7-benzyl-3-cyclopropyl-22-isobutyl-N-(3-methoxyphenethyl)-21-methyl-5,16,20,23-tetraoxo-2,3,4,4a,5,6,7,8,16,17,18,19,20,21,22,23-hexadecahydro-1H-naphtho[1,2-p]pyrazino[2,1-f][1]oxa[4,7,10,14]tetraazacycloheptadecine-18-carboxamide], the pEC50 is 6.78 and the Emax was determined as 353%.
For `COc1cccc(CCNC(=O)[C@@H]2CC(=O)N(C)[C@@H](CC(C)C)C(=O)N3CCN(C4CC4)C[C@H]3C(=O)N[C@H](Cc3ccccc3)COc3ccc4ccccc4c3C(=O)N2)c1` [Example 357, (4aS,7R,18S,22S)-7-benzyl-3-cyclopropyl-22-isobutyl-N-(3-methoxyphenethyl)-21-methyl-5,16,20,23-tetraoxo-2,3,4,4a,5,6,7,8,16,17,18,19,20,21,22,23-hexadecahydro-1H-naphtho[1,2-p]pyrazino[2,1-f][1]oxa[4,7,10,14]tetraazacycloheptadecine-18-carboxamide] the same measures were 6.32 and 124%.
The corresponding values for `CN1C(=O)C[C@@H](C(=O)NCCc2ccc3c(c2)OCO3)NC(=O)c2c(ccc3ccccc23)OC[C@@H](Cc2ccccc2)NC(=O)CN(CC[C@@H]2CCCCO2)C(=O)[C@@H]1CC1CC1` [Example 358, (3S,7S,13R)-N-(2-(benzo[d][1,3]dioxol-5-yl)ethyl)-13-benzyl-7-(cyclopropylmethyl)-6-methyl-1,5,8,11-tetraoxo-9-(2-((S)-tetrahydro-2H-pyran-2-yl)ethyl)-1,2,3,4,5,6,7,8,9,10,11,12,13,14-tetradecahydronaphtho[1,2-p][1]oxa[4,7,10,14]tetraazacycloheptadecine-3-carboxamide] are 6.39 and 171%.
Take `CN1C(=O)C[C@@H](C(=O)NCCc2ccc3c(c2)OCO3)NC(=O)c2c(ccc3ccccc23)OC[C@@H](Cc2ccccc2)NC(=O)CN(CC[C@H]2CCCCO2)C(=O)[C@@H]1CC1CC1` [Example 359, (3S,7S,13R)-N-(2-(benzo[d][1,3]dioxol-5-yl)ethyl)-13-benzyl-7-(cyclopropylmethyl)-6-methyl-1,5,8,11-tetraoxo-9-(2-((R)-tetrahydro-2H-pyran-2-yl)ethyl)-1,2,3,4,5,6,7,8,9,10,11,12,13,14-tetradecahydronaphtho[1,2-p][1]oxa[4,7,10,14]tetraazacycloheptadecine-3-carboxamide]: the pEC50 is 6.50 and the maximal response (Emax) is 144%.
For `CN1C(=O)C[C@@H](C(=O)NCCc2ccc3c(c2)OCO3)NC(=O)c2c(ccc3ccccc23)OC[C@@H](Cc2ccccc2)NC(=O)CN(CC[C@@H]2CCCCO2)C(=O)[C@@H]1CC1CCC1` [Example 360, (3S,7S,13R)-N-(2-(benzo[d][1,3]dioxol-5-yl)ethyl)-13-benzyl-7-(cyclobutylmethyl)-6-methyl-1,5,8,11-tetraoxo-9-(2-((S)-tetrahydro-2H-pyran-2-yl)ethyl)-1,2,3,4,5,6,7,8,9,10,11,12,13,14-tetradecahydronaphtho[1,2-p][1]oxa[4,7,10,14]tetraazacycloheptadecine-3-carboxamide] the same measures were 6.74 and 224%.
For `CN1C(=O)C[C@@H](C(=O)NCCc2ccc3c(c2)OCO3)NC(=O)c2c(ccc3ccccc23)OC[C@@H](Cc2ccccc2)NC(=O)CN(CC[C@H]2CCCCO2)C(=O)[C@@H]1CC1CCC1` [Example 361, (3S,7S,13R)-N-(2-(benzo[d][1,3]dioxol-5-yl)ethyl)-13-benzyl-7-(cyclobutylmethyl)-6-methyl-1,5,8,11-tetraoxo-9-(2-((R)-tetrahydro-2H-pyran-2-yl)ethyl)-1,2,3,4,5,6,7,8,9,10,11,12,13,14-tetradecahydronaphtho[1,2-p][1]oxa[4,7,10,14]tetraazacycloheptadecine-3-carboxamide] the same measures were 6.58 and 183%.
Consider `CC(C)C[C@H]1C(=O)N(CC[C@@H]2CCCCO2)CC(=O)N[C@H](Cc2ccccc2)COc2ccc3ccccc3c2C(=O)N[C@H](C(=O)NCCc2ccc3c(c2)OCO3)CC(=O)N1C` [Example 362, (3S,7S,13R)-N-(2-(benzo[d][1,3]dioxol-5-yl)ethyl)-13-benzyl-7-isobutyl-6-methyl-1,5,8,11-tetraoxo-9-(2-((S)-tetrahydro-2H-pyran-2-yl)ethyl)-1,2,3,4,5,6,7,8,9,10,11,12,13,14-tetradecahydronaphtho[1,2-p][1]oxa[4,7,10,14]tetraazacycloheptadecine-3-carboxamide], for which the pEC50 is 6.82 and the Emax worked out at 247%.
For `CC(C)C[C@H]1C(=O)N(CC[C@H]2CCCCO2)CC(=O)N[C@H](Cc2ccccc2)COc2ccc3ccccc3c2C(=O)N[C@H](C(=O)NCCc2ccc3c(c2)OCO3)CC(=O)N1C` [Example 363] the same measures were 6.60 and 230%.
The corresponding values for `COc1cccc(CCNC(=O)[C@@H]2CC(=O)N(C)[C@@H](CC(C)C)C(=O)N3CCN(CC(C)C)C[C@@H]3C(=O)N[C@H](Cc3ccccc3)COc3ccc4ncn(C)c4c3C(=O)N2)c1` [Example 364, (8S,12S,18aR,21R)-21-benzyl-12,17-diisobutyl-N-(3-methoxyphenethyl)-5,11-dimethyl-6,10,13,19-tetraoxo-6,7,8,9,10,11,12,13,16,17,18,18a,19,20,21,22-hexadecahydro-5H,15H-imidazo[4′,5′:5,6]benzo[1,2-p]pyrazino[2,1-f][1]oxa[4,7,10,14]tetraazacycloheptadecine-8-carboxamide] are 6.58 and 201%.
Regarding `COc1cccc(CCNC(=O)[C@@H]2CC(=O)N(C)[C@@H](CC(C)C)C(=O)N3CCCC[C@@H]3C(=O)N[C@H](Cc3ccccc3)COc3cnc4ccccc4c3C(=O)N2)c1` [Example 365, (9S,13S,19aR,22R)-22-benzyl-13-isobutyl-N-(3-methoxyphenethyl)-12-methyl-7,11,14,20-tetraoxo-7,8,9,10,11,12,13,14,17,18,19,19a,20,21,22,23-hexadecahydro-16H-pyrido[2′,1′:6,7][1]oxa[4,7,10,14]tetraazacycloheptadecino[17,16-c]quinoline-9-carboxamide], the pEC50 was 6.40 and the Emax turned out to be 387%.
For `COc1cccc(CCNC(=O)[C@@H]2CC(=O)N(C)[C@@H](CC(C)C)C(=O)N3CCCC[C@H]3C(=O)N[C@H](Cc3ccccc3)COc3cnc4ccccc4c3C(=O)N2)c1` [Example 366, (9S,13S,19aS,22R)-22-benzyl-13-isobutyl-N-(3-methoxyphenethyl)-12-methyl-7,11,14,20-tetraoxo-7,8,9,10,11,12,13,14,17,18,19,19a,20,21,22,23-hexadecahydro-16H-pyrido[2′,1′:6,7][1]oxa[4,7,10,14]tetraazacycloheptadecino[17,16-c]quinoline-9-carboxamide] the same measures were 6.58 and 172%.

Source of the values: patent US20240208992A1, “MACROCYCLES AS CFTR MODULATORS” (Idorsia Pharmaceuticals Ltd, priority 2021, published 2024).
